{"source": "ChEMBL document CHEMBL1132735", "about": "“Synthesis and biological evaluation of L- and D-configuration 1,3-dioxolane 5-azacytosine and 6-azathymine nucleosides” (Bioorg Med Chem Lett, 2000)", "key": {"[1]": {"system": "Hepatitis B virus", "assay": "Concentration required to inhibit 50% of Hepatitis B virus replication", "assay_type": "functional, organism-based"}, "[2]": {"system": "Human immunodeficiency virus 1", "assay": "Concentration required to inhibit 50% of HIV-IIIB virus replication", "assay_type": "functional, organism-based"}, "[3]": {"system": "MT2", "assay": "Concentration required to inhibit 50% of host cell replication in MT-2 cells used against HIV studies", "assay_type": "functional, cell-based", "conditions": "Homo sapiens"}, "[4]": {"system": "B16-F10", "assay": "Concentration required to inhibit 50% of B16F10 cell replication, tested up to a concentration of 100 uM", "assay_type": "functional, cell-based", "conditions": "Mus musculus"}, "[5]": {"system": "CCRF-CEM", "assay": "Concentration required to inhibit 50% of CCRF-CEM cell replication, tested up to a concentration of 100 uM", "assay_type": "functional, cell-based", "conditions": "Homo sapiens"}, "[6]": {"system": "Human alphaherpesvirus 2", "assay": "Concentration required to inhibit 50% of HSV-2 replication", "assay_type": "functional, organism-based"}, "[7]": {"system": "Human alphaherpesvirus 1", "assay": "Concentration required to inhibit 50% of HSV-1 replication", "assay_type": "functional, organism-based"}, "[8]": {"system": "HepG2", "assay": "Concentration required to inhibit 50% of host cell replication in human hepatoma (2.2.15) cells used against HBV studies", "assay_type": "functional, cell-based"}, "[9]": {"system": "L1210", "assay": "Concentration required to inhibit 50% of leukemia L1210 cell replication, tested up to a concentration of 100 uM", "assay_type": "functional, cell-based", "conditions": "Mus musculus"}, "[10]": {"system": "P388", "assay": "Concentration required to inhibit 50% of P388 cell replication, tested up to a concentration of 100 uM", "assay_type": "functional, cell-based", "conditions": "Mus musculus"}, "[11]": {"system": "Vero", "assay": "Concentration required to inhibit 50% of host cell replication in Vero cell used against HSV-1 and HSV-2 studies", "assay_type": "functional, cell-based", "conditions": "Chlorocebus sabaeus"}}}
{"compound": "Cc1cn([C@H]2C=C[C@@H](CO)O2)c(=O)[nH]c1=O", "note": "[STAVUDINE]", "values": [{"measurement": "EC50", "setting": "[1]", "result": "> 20", "unit": "µM"}, {"measurement": "EC50", "setting": "[2]", "result": 0.6, "unit": "µM"}, {"measurement": "IC50", "setting": "[3]", "result": "> 100", "unit": "µM"}]}
{"compound": "Nc1ncn(C[C@@H]2CO[C@H](CO)O2)c(=O)n1", "values": [{"measurement": "EC50", "setting": "[4]", "result": 70, "unit": "µM"}, {"measurement": "EC50", "setting": "[5]", "result": 20, "unit": "µM"}, {"measurement": "EC50", "setting": "[6]", "result": "> 50", "unit": "µM"}, {"measurement": "EC50", "setting": "[7]", "result": 32, "unit": "µM"}, {"measurement": "EC50", "setting": "[1]", "result": 0.6, "unit": "µM"}, {"measurement": "EC50", "setting": "[2]", "result": 5, "unit": "µM"}, {"measurement": "IC50", "setting": "[8]", "result": 17, "unit": "µM"}, {"measurement": "EC50", "setting": "[9]", "result": 70, "unit": "µM"}, {"measurement": "IC50", "setting": "[3]", "result": 17, "unit": "µM"}, {"measurement": "EC50", "setting": "[10]", "result": 90, "unit": "µM"}, {"measurement": "IC50", "setting": "[11]", "result": 12, "unit": "µM"}]}
{"compound": "Nc1ncn(C[C@H]2CO[C@H](CO)O2)c(=O)n1", "values": [{"measurement": "EC50", "setting": "[4]", "result": 70, "unit": "µM"}, {"measurement": "EC50", "setting": "[5]", "result": 30, "unit": "µM"}, {"measurement": "EC50", "setting": "[6]", "result": "> 50", "unit": "µM"}, {"measurement": "EC50", "setting": "[7]", "result": "> 50", "unit": "µM"}, {"measurement": "EC50", "setting": "[1]", "result": 6.5, "unit": "µM"}, {"measurement": "EC50", "setting": "[2]", "result": "> 100", "unit": "µM"}, {"measurement": "IC50", "setting": "[8]", "result": 17, "unit": "µM"}, {"measurement": "EC50", "setting": "[9]", "result": 70, "unit": "µM"}, {"measurement": "IC50", "setting": "[3]", "result": 18, "unit": "µM"}, {"measurement": "EC50", "setting": "[10]", "result": 65, "unit": "µM"}, {"measurement": "IC50", "setting": "[11]", "result": 31, "unit": "µM"}]}
{"compound": "Nc1ncn(C[C@@H]2CO[C@@H](CO)O2)c(=O)n1", "values": [{"measurement": "EC50", "setting": "[4]", "result": 80, "unit": "µM"}, {"measurement": "EC50", "setting": "[5]", "result": 70, "unit": "µM"}, {"measurement": "EC50", "setting": "[6]", "result": "> 50", "unit": "µM"}, {"measurement": "EC50", "setting": "[7]", "result": "> 50", "unit": "µM"}, {"measurement": "EC50", "setting": "[1]", "result": "> 20", "unit": "µM"}, {"measurement": "EC50", "setting": "[2]", "result": "> 100", "unit": "µM"}, {"measurement": "IC50", "setting": "[8]", "result": 25, "unit": "µM"}, {"measurement": "EC50", "setting": "[9]", "result": 80, "unit": "µM"}, {"measurement": "IC50", "setting": "[3]", "result": 27, "unit": "µM"}, {"measurement": "EC50", "setting": "[10]", "result": 70, "unit": "µM"}, {"measurement": "IC50", "setting": "[11]", "result": 28, "unit": "µM"}]}
{"compound": "Cc1nn(C[C@@H]2CO[C@H](CO)O2)c(=O)[nH]c1=O", "values": [{"measurement": "EC50", "setting": "[4]", "result": "> 100", "unit": "µM"}, {"measurement": "EC50", "setting": "[5]", "result": "> 100", "unit": "µM"}, {"measurement": "EC50", "setting": "[6]", "result": "> 50", "unit": "µM"}, {"measurement": "EC50", "setting": "[7]", "result": "> 50", "unit": "µM"}, {"measurement": "EC50", "setting": "[1]", "result": "> 20", "unit": "µM"}, {"measurement": "EC50", "setting": "[2]", "result": "> 100", "unit": "µM"}, {"measurement": "IC50", "setting": "[8]", "result": "> 50", "unit": "µM"}, {"measurement": "EC50", "setting": "[9]", "result": "> 100", "unit": "µM"}, {"measurement": "IC50", "setting": "[3]", "result": "> 100", "unit": "µM"}, {"measurement": "EC50", "setting": "[10]", "result": "> 100", "unit": "µM"}, {"measurement": "IC50", "setting": "[11]", "result": "> 50", "unit": "µM"}]}
{"compound": "Cc1nn(C[C@H]2CO[C@@H](CO)O2)c(=O)[nH]c1=O", "values": [{"measurement": "EC50", "setting": "[4]", "result": "> 100", "unit": "µM"}, {"measurement": "EC50", "setting": "[5]", "result": "> 100", "unit": "µM"}, {"measurement": "EC50", "setting": "[6]", "result": "> 50", "unit": "µM"}, {"measurement": "EC50", "setting": "[7]", "result": "> 50", "unit": "µM"}, {"measurement": "EC50", "setting": "[1]", "result": "> 20", "unit": "µM"}, {"measurement": "EC50", "setting": "[2]", "result": "> 100", "unit": "µM"}, {"measurement": "IC50", "setting": "[8]", "result": "> 50", "unit": "µM"}, {"measurement": "EC50", "setting": "[9]", "result": "> 100", "unit": "µM"}, {"measurement": "IC50", "setting": "[3]", "result": "> 100", "unit": "µM"}, {"measurement": "EC50", "setting": "[10]", "result": "> 100", "unit": "µM"}, {"measurement": "IC50", "setting": "[11]", "result": "> 50", "unit": "µM"}]}
{"compound": "Cc1nn(C[C@@H]2CO[C@@H](CO)O2)c(=O)[nH]c1=O", "values": [{"measurement": "EC50", "setting": "[4]", "result": "> 100", "unit": "µM"}, {"measurement": "EC50", "setting": "[5]", "result": "> 100", "unit": "µM"}, {"measurement": "EC50", "setting": "[6]", "result": "> 50", "unit": "µM"}, {"measurement": "EC50", "setting": "[7]", "result": "> 50", "unit": "µM"}, {"measurement": "EC50", "setting": "[1]", "result": "> 20", "unit": "µM"}, {"measurement": "EC50", "setting": "[2]", "result": "> 100", "unit": "µM"}, {"measurement": "IC50", "setting": "[8]", "result": "> 50", "unit": "µM"}, {"measurement": "EC50", "setting": "[9]", "result": "> 100", "unit": "µM"}, {"measurement": "IC50", "setting": "[3]", "result": "> 100", "unit": "µM"}, {"measurement": "EC50", "setting": "[10]", "result": "> 100", "unit": "µM"}, {"measurement": "IC50", "setting": "[11]", "result": "> 50", "unit": "µM"}]}
{"compound": "Nc1ncn(C[C@H]2CO[C@@H](CO)O2)c(=O)n1", "values": [{"measurement": "EC50", "setting": "[4]", "result": 60, "unit": "µM"}, {"measurement": "EC50", "setting": "[5]", "result": 80, "unit": "µM"}, {"measurement": "EC50", "setting": "[6]", "result": "> 50", "unit": "µM"}, {"measurement": "EC50", "setting": "[7]", "result": "> 50", "unit": "µM"}, {"measurement": "EC50", "setting": "[1]", "result": 6.3, "unit": "µM"}, {"measurement": "EC50", "setting": "[2]", "result": 1, "unit": "µM"}, {"measurement": "IC50", "setting": "[8]", "result": 27, "unit": "µM"}, {"measurement": "EC50", "setting": "[9]", "result": 90, "unit": "µM"}, {"measurement": "IC50", "setting": "[3]", "result": 32, "unit": "µM"}, {"measurement": "EC50", "setting": "[10]", "result": 70, "unit": "µM"}, {"measurement": "IC50", "setting": "[11]", "result": 30, "unit": "µM"}]}
{"compound": "Nc1ccn([C@H]2CC[C@@H](CO)O2)c(=O)n1", "note": "[ZALCITABINE]", "values": [{"measurement": "EC50", "setting": "[1]", "result": 2.3, "unit": "µM"}, {"measurement": "IC50", "setting": "[8]", "result": "> 37", "unit": "µM"}]}
{"compound": "Cc1nn(C[C@H]2CO[C@H](CO)O2)c(=O)[nH]c1=O", "values": [{"measurement": "EC50", "setting": "[4]", "result": "> 100", "unit": "µM"}, {"measurement": "EC50", "setting": "[5]", "result": "> 100", "unit": "µM"}, {"measurement": "EC50", "setting": "[6]", "result": "> 50", "unit": "µM"}, {"measurement": "EC50", "setting": "[7]", "result": "> 50", "unit": "µM"}, {"measurement": "EC50", "setting": "[1]", "result": "> 20", "unit": "µM"}, {"measurement": "EC50", "setting": "[2]", "result": "> 100", "unit": "µM"}, {"measurement": "IC50", "setting": "[8]", "result": "> 50", "unit": "µM"}, {"measurement": "EC50", "setting": "[9]", "result": "> 100", "unit": "µM"}, {"measurement": "IC50", "setting": "[3]", "result": "> 100", "unit": "µM"}, {"measurement": "EC50", "setting": "[10]", "result": "> 100", "unit": "µM"}, {"measurement": "IC50", "setting": "[11]", "result": "> 50", "unit": "µM"}]}
{"compound": "Nc1nc2c(ncn2COCCO)c(=O)[nH]1", "note": "[ACYCLOVIR]", "values": [{"measurement": "EC50", "setting": "[6]", "result": 35, "unit": "µM"}, {"measurement": "EC50", "setting": "[7]", "result": 23, "unit": "µM"}, {"measurement": "IC50", "setting": "[11]", "result": "> 50", "unit": "µM"}]}
